In brackets after ≈: the same amount, converted by molar mass.

Experiment [1] has as its system Escherichia coli. The experiment is described as follows: Binding affinity to Escherichia coli 16S rRNA A-site model at Ec2AP1493 position assessed as shorter rotational correlation time by time resolved fluorescence anisotropy.
For experiment [2], the system named is Escherichia coli. The experiment is described as follows: Antibacterial activity against Escherichia coli DH5-alpha after 24 hrs by broth dilution assay. The format is functional. Particulars: DH5alpha. (In broth dilution the organism is exposed to a series of concentrations in liquid medium.)
Experiment [3] concerns Escherichia coli. The experiment is described as follows: Binding affinity to Escherichia coli 16S rRNA A-site model at Ec2AP1493 position assessed as two rotational correlation time by time resolved fluorescence anisotropy.
The test system of experiment [4] is Escherichia coli. The experiment is described as follows: Binding affinity to Escherichia coli 16S rRNA A-site model at Ec2AP1492 position assessed as two rotational correlation time by time resolved fluorescence anisotropy. (Fluorescence polarisation rises when a labelled molecule tumbles more slowly, as on binding a larger partner.)
Experiment [5] has as its system Escherichia coli. The experiment is described as follows: Binding affinity to Escherichia coli 16S rRNA A-site model at Ec2AP1492 position assessed as shorter rotational correlation time by time resolved fluorescence anisotropy.
Experiment [6] relates to Escherichia coli. The experiment is described as follows: Antitranslation activity in Escherichia coli extract rRNA S30 assessed as inhibition of luciferase expression by transcription-translation assay. The format is functional.

As usually defined, the MIC is the lowest concentration found to suppress growth. Read a low MIC as inhibition by little substance. What is called IC50 is the concentration that inhibits the measured activity by half. `NC[C@@H]1O[C@H](O[C@@H]2[C@@H](O)[C@H](O[C@@H]3[C@@H](O)[C@H](N)C[C@H](N)[C@@H]3O[C@H]3O[C@H](CN)[C@@H](O)[C@H](O)[C@H]3N)O[C@@H]2CO)[C@H](N)[C@@H](O)[C@@H]1O`: the Activity in experiment [1] is 1.96 nanoseconds; in experiment [3] it was 5.32 nanoseconds; in experiment [4], 7.32 nanoseconds; in experiment [5], 2.35 nanoseconds. This molecule gave a minimum inhibitory concentration (MIC) in experiment [2] of 1.9 µg/mL (≈ 3.09 µM). In experiment [6], the IC50 turned out to be 50 nM.
On to `NC[C@@H]1O[C@H](O[C@@H]2[C@@H](O)[C@@H]3OC4[C@@H](O)[C@H](N)C[C@H](N)[C@H]4O[C@H]4O[C@H](CN)[C@@H](O)[C@H](O)[C@H]4NC[C@H]2O3)[C@H](N)[C@@H](O)[C@@H]1O` (some centres not stated), for which the Activity in experiment [1] stood at 0.65 nanoseconds; in experiment [3] it was 3.95 nanoseconds; in experiment [4], 4.38 nanoseconds; in experiment [5] it was 0.76 nanoseconds. In addition, in experiment [2], it took 119 µg/mL (≈ 199 µM) to inhibit growth (MIC). The 50% inhibitory concentration (IC50) in experiment [6] was 1100 nM.

The values above are taken from ChEMBL document CHEMBL1145509, “Defining the molecular forces that determine the impact of neomycin on bacterial protein synthesis: importance of the 2'-amino functionality” (Antimicrob Agents Chemother, 2007).
